Laboratory results taken from patent US20260356819A1, “OXOISOINDOLINYL-SUBSTITUTED […] DERIVATIVE AND USE THEREOF” (GLUETACS THERAPEUTICS (SHANGHAI) CO., LTD., priority 2023, published 2026).

How the values were obtained:
Format in all cases: cell-based
Details in all cases: compounds at 50 nM and 500 nM
[1] = biological target: T1, WEE1 (Homo sapiens, UniProt P30291+Q96SW2); test: Western blot degradation of WEE1 in hPBMCs (24 h)
T1 construct: The supernatant was aspirated as the extracted total cell protein; endogenous in cells; host or cells: human peripheral blood mononuclear cells (hPBMCs)
T1 sequence (P30291 whole entry): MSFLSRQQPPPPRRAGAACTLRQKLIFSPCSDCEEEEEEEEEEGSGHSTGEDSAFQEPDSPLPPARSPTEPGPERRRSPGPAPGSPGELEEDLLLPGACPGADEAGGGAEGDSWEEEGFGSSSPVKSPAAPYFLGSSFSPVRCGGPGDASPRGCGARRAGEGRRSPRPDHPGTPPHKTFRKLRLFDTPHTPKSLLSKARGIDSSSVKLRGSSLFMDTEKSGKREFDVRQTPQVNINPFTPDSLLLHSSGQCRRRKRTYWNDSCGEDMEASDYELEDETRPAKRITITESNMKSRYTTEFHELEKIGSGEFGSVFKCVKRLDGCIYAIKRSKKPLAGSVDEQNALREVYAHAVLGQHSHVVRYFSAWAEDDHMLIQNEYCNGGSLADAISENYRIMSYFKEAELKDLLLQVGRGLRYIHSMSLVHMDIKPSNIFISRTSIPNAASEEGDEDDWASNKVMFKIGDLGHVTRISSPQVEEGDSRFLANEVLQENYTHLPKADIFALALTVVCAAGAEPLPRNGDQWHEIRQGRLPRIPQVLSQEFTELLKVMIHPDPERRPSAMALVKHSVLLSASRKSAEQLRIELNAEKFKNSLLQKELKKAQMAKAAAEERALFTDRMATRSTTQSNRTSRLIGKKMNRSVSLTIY
T1 sequence (Q96SW2 whole entry): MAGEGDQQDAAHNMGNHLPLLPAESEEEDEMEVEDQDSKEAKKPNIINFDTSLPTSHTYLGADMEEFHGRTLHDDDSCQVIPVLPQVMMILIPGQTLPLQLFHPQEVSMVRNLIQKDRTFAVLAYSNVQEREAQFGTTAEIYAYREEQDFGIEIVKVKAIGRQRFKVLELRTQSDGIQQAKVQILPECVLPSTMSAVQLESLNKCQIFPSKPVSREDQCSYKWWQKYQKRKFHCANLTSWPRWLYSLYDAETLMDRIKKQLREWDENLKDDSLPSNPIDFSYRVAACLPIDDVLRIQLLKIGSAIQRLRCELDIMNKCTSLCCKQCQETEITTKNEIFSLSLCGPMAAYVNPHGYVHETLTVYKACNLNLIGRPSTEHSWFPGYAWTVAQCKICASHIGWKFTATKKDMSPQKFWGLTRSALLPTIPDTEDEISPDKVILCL
T1 sequence (Q16531 whole entry partner): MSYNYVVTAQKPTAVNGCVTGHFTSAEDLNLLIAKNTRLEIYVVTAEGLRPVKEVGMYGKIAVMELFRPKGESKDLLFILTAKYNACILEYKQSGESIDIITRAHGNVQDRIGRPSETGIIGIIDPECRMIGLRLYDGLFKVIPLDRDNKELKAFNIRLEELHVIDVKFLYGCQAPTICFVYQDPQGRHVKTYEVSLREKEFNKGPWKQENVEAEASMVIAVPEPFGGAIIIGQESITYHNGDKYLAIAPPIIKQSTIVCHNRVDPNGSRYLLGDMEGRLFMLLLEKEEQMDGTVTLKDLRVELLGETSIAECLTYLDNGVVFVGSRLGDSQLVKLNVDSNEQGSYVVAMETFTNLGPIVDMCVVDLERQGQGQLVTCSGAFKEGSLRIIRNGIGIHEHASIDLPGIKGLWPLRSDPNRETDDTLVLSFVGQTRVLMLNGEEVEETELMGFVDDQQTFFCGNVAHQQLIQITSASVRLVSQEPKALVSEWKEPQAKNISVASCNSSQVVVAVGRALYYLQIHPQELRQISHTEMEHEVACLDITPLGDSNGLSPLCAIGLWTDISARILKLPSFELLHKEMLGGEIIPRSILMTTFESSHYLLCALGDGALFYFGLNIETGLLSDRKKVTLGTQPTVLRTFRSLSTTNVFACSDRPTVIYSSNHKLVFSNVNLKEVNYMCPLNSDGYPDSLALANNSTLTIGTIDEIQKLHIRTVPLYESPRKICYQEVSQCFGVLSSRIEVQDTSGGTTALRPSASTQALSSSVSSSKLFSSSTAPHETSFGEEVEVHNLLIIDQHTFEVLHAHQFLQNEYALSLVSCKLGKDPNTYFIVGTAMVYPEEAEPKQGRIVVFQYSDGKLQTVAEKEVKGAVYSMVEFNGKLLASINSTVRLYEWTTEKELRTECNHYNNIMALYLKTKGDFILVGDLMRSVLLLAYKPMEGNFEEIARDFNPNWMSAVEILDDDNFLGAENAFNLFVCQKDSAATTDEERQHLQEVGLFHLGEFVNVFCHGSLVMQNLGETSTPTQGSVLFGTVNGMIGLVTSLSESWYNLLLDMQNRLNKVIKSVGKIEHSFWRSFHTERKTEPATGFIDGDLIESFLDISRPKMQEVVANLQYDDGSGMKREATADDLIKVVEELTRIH
Procedure, shortened: (§1)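 Western blot densitometry after 24 h treatment of human PBMCs (1×10^6 cells/mL) with 50 nM or 500 nM compound. Remaining target (%) = band intensity over internal-control band, normalized to DMSO; degradation = 1 − remaining; DC50 is the concentration giving half the DMSO band signal.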

[2] = biological target: T2, IKZF1 (Homo sapiens, UniProt Q13422+Q96SW2); test: Western blot degradation of IKZF1 in hPBMCs (24 h)
T2 construct: The supernatant was aspirated as the extracted total cell protein; endogenous in cells; host or cells: human peripheral blood mononuclear cells (hPBMCs)
T2 sequence (Q13422 whole entry): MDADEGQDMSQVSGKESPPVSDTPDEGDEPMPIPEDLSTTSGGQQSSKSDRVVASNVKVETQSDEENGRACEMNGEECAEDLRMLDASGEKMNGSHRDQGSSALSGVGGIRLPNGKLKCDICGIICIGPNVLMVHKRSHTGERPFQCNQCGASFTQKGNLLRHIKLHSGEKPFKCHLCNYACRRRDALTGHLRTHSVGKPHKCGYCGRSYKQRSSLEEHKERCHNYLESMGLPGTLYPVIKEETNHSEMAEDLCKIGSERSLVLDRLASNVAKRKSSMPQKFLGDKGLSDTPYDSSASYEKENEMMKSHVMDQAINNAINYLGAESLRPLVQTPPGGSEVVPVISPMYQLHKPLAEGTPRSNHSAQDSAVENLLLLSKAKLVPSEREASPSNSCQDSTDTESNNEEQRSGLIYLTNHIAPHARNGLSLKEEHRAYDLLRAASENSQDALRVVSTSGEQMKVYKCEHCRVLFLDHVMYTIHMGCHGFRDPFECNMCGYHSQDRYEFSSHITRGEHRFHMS
T2 sequence (Q96SW2 whole entry): as the sequence (Q96SW2 whole entry) above
T2 sequence (Q16531 whole entry partner): as the sequence (Q16531 whole entry partner) above
Procedure, shortened: as §1

[3] = biological target: T3, IKZF2 (Homo sapiens, UniProt Q96SW2+Q9UKS7); test: Western blot degradation of IKZF2 in hPBMCs (24 h)
T3 construct: The supernatant was aspirated as the extracted total cell protein; endogenous in cells; host or cells: human peripheral blood mononuclear cells (hPBMCs)
T3 sequence (Q9UKS7 whole entry): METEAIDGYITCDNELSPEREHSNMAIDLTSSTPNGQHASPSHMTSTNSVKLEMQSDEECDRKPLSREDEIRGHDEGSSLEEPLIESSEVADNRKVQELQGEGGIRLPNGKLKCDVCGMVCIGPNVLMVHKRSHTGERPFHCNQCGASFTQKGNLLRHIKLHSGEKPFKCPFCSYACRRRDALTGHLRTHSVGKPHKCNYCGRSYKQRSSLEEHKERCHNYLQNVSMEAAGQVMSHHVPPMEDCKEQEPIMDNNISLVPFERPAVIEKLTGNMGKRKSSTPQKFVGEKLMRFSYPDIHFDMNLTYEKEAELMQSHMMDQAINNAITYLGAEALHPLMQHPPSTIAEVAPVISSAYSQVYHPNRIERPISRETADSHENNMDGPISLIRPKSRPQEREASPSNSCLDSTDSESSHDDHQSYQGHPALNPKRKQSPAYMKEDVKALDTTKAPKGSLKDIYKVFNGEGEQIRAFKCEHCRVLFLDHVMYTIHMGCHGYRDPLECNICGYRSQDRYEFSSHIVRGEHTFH
T3 sequence (Q96SW2 whole entry): as the sequence (Q96SW2 whole entry) above
T3 sequence (Q16531 whole entry partner): as the sequence (Q16531 whole entry partner) above
Procedure, shortened: as §1

[4] = biological target: T4, IKZF3 (Homo sapiens, UniProt Q96SW2+Q9UKT9); test: Western blot degradation of IKZF3 in hPBMCs (24 h)
T4 construct: The supernatant was aspirated as the extracted total cell protein; endogenous in cells; host or cells: human peripheral blood mononuclear cells (hPBMCs)
T4 sequence (Q9UKT9 whole entry): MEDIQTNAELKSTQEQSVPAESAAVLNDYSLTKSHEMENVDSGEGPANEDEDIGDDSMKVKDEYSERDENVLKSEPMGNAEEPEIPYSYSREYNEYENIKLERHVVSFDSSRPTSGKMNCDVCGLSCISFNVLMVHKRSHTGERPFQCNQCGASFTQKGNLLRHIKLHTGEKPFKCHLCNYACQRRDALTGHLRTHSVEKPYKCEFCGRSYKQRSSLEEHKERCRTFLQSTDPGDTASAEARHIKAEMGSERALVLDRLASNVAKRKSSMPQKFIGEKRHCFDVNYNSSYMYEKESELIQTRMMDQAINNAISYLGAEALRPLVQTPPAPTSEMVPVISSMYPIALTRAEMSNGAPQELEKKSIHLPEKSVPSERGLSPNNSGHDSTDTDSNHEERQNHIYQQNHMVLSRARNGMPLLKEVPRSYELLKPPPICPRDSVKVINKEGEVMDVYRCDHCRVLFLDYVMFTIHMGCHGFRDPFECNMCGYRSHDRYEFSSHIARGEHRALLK
T4 sequence (Q96SW2 whole entry): as the sequence (Q96SW2 whole entry) above
T4 sequence (Q16531 whole entry partner): as the sequence (Q16531 whole entry partner) above
Procedure, shortened: as §1

[5] = biological target: T5, CK1α (Homo sapiens, UniProt P48729+Q96SW2); test: Western blot degradation of CK1α in hPBMCs (24 h)
T5 construct: The supernatant was aspirated as the extracted total cell protein; endogenous in cells; host or cells: human peripheral blood mononuclear cells (hPBMCs)
T5 sequence (P48729 whole entry): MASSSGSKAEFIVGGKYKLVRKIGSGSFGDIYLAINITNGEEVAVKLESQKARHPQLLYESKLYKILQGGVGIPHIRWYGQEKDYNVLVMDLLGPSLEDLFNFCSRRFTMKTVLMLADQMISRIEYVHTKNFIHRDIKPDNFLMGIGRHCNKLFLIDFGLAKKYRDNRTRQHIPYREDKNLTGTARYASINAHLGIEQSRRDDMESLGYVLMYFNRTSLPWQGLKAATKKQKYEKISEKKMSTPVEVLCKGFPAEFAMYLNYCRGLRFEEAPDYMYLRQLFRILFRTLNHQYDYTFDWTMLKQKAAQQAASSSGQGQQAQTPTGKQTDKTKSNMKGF
T5 sequence (Q96SW2 whole entry): as the sequence (Q96SW2 whole entry) above
T5 sequence (Q16531 whole entry partner): as the sequence (Q16531 whole entry partner) above
Procedure, shortened: as §1

[6] = biological target: T6, GSPT1 (Homo sapiens, UniProt P15170+Q96SW2); test: Western blot degradation of GSPT1 in hPBMCs (24 h)
T6 construct: The supernatant was aspirated as the extracted total cell protein; endogenous in cells; host or cells: human peripheral blood mononuclear cells (hPBMCs)
Procedure, shortened: as §1

| Structure (SMILES) | WEE1 substrate protein remaining % [1] | IKZF1 substrate protein remaining % [2] | IKZF2 substrate protein remaining % [3] | IKZF3 substrate protein remaining % [4] | CK1α substrate protein remaining % [5] | GSPT1 substrate protein remaining % [6] |
| --- | --- | --- | --- | --- | --- | --- |
| O=C1CCN(N2C(=O)c3ccc(CN4CCC(N5CCCc6cc(F)ccc65)CC4)cc3C2=O)C(=O)N1 [GT-07681, 2-(2,4-dioxotetrahydropyrimidin-1(2H)-yl)-5-((4-(6-fluoro-3,4-dihydroquinolin-1(2H)-yl)piperidin-1-yl)methyl)isoindoline-1,3-dione] | B (80%< substrate protein remaining % ≤100%) | A (0% ≤ substrate protein remaining % ≤80%) | B (80%< substrate protein remaining % ≤100%) | B (80%< substrate protein remaining % ≤100%) | B (80%< substrate protein remaining % ≤100%) | A (0% ≤ substrate protein remaining % ≤80%) |
| O=C1CCN(N2C(=O)c3ccc(CN4CCC(N5CCOc6cc(F)ccc65)CC4)cc3C2=O)C(=O)N1 [GT-07682, 2-(2,4-dioxotetrahydropyrimidin-1(2H)-yl)-5-((4-(7-fluoro-2,3-dihydro-4H-benzo[b][1,4]oxazin-4-yl)piperidin-1-yl)methyl)isoindoline-1,3-dione] | B (80%< substrate protein remaining % ≤100%) | B (80%< substrate protein remaining % ≤100%) | B (80%< substrate protein remaining % ≤100%) | B (80%< substrate protein remaining % ≤100%) | B (80%< substrate protein remaining % ≤100%) | A (0% ≤ substrate protein remaining % ≤80%) |
| O=C1CCN(N2C(=O)c3ccc(CN4CCC(N5C(=O)COc6cc(F)ccc65)CC4)cc3C2=O)C(=O)N1 [GT-07683, 2-(2,4-dioxotetrahydropyrimidin-1(2H)-yl)-5-((4-(7-fluoro-3-oxo-2,3-dihydro-4H-benzo[b][1,4]oxazin-4-yl)piperidin-1-yl)methyl)isoindoline-1,3-dione] | B (80%< substrate protein remaining % ≤100%) | B (80%< substrate protein remaining % ≤100%) | B (80%< substrate protein remaining % ≤100%) | B (80%< substrate protein remaining % ≤100%) | B (80%< substrate protein remaining % ≤100%) | A (0% ≤ substrate protein remaining % ≤80%) |
| O=C1CCN(N2C(=O)c3ccc(CN4CCC(C5CCOc6cc(F)ccc65)CC4)cc3C2=O)C(=O)N1 (stereo not drawn) [GT-07684, 2-(2,4-dioxotetrahydropyrimidin-1(2H)-yl)-5-((4-(7-fluorochroman-4-yl)piperidin-1-yl)methyl)isoindoline-1,3-dione] | B (80%< substrate protein remaining % ≤100%) | B (80%< substrate protein remaining % ≤100%) | B (80%< substrate protein remaining % ≤100%) | B (80%< substrate protein remaining % ≤100%) | B (80%< substrate protein remaining % ≤100%) | A (0% ≤ substrate protein remaining % ≤80%) |
| O=C1CCN(N2C(=O)c3ccc(CN4CCC(=C5CCOc6cc(F)ccc65)CC4)cc3C2=O)C(=O)N1 [GT-07685, 2-(2,4-dioxotetrahydropyrimidin-1(2H)-yl)-5-((4-(7-fluorochroman-4-ylidene)piperidin-1-yl)methyl)isoindoline-1,3-dione] | B (80%< substrate protein remaining % ≤100%) | B (80%< substrate protein remaining % ≤100%) | B (80%< substrate protein remaining % ≤100%) | B (80%< substrate protein remaining % ≤100%) | B (80%< substrate protein remaining % ≤100%) | A (0% ≤ substrate protein remaining % ≤80%) |
| O=C1CCN(N2C(=O)c3ccc(CN4CCC(c5cccc6c(F)cccc56)CC4)cc3C2=O)C(=O)N1 [GT-07686, 2-(2,4-dioxotetrahydropyrimidin-1(2H)-yl)-5-((4-(5-fluoronaphthalen-1-yl)piperidin-1-yl)methyl)isoindoline-1,3-dione] | B (80%< substrate protein remaining % ≤100%) | B (80%< substrate protein remaining % ≤100%) | B (80%< substrate protein remaining % ≤100%) | B (80%< substrate protein remaining % ≤100%) | B (80%< substrate protein remaining % ≤100%) | A (0% ≤ substrate protein remaining % ≤80%) |
| O=C1CCN(N2C(=O)c3ccc(CN4CC=C(c5cccc6c(F)cccc56)CC4)cc3C2=O)C(=O)N1 [GT-07687, 2-(2,4-dioxotetrahydropyrimidin-1(2H)-yl)-5-((4-(5-fluoronaphthalen-1-yl)-3,6-dihydropyridin-1(2H)-yl)methyl)isoindoline-1,3-dione] | B (80%< substrate protein remaining % ≤100%) | B (80%< substrate protein remaining % ≤100%) | B (80%< substrate protein remaining % ≤100%) | B (80%< substrate protein remaining % ≤100%) | B (80%< substrate protein remaining % ≤100%) | A (0% ≤ substrate protein remaining % ≤80%) |
| O=C1CCN(N2C(=O)c3ccc(CN4CCC(c5cccc6cnccc56)CC4)cc3C2=O)C(=O)N1 [GT-07688, 2-(2,4-dioxotetrahydropyrimidin-1(2H)-yl)-5-((4-(isoquinolin-5-yl)piperidin-1-yl)methyl)isoindoline-1,3-dione] | B (80%< substrate protein remaining % ≤100%) | B (80%< substrate protein remaining % ≤100%) | B (80%< substrate protein remaining % ≤100%) | B (80%< substrate protein remaining % ≤100%) | B (80%< substrate protein remaining % ≤100%) | A (0% ≤ substrate protein remaining % ≤80%) |
| O=C1CCN(N2C(=O)c3ccc(CN4CCC(c5ccnc6cc(F)ccc56)CC4)cc3C2=O)C(=O)N1 [GT-07689, 2-(2,4-dioxotetrahydropyrimidin-1(2H)-yl)-5-((4-(7-fluoroquinolin-4-yl)piperidin-1-yl)methyl)isoindoline-1,3-dione] | B (80%< substrate protein remaining % ≤100%) | B (80%< substrate protein remaining % ≤100%) | B (80%< substrate protein remaining % ≤100%) | B (80%< substrate protein remaining % ≤100%) | A (0% ≤ substrate protein remaining % ≤80%) | A (0% ≤ substrate protein remaining % ≤80%) |
